{"source": "patent US20050171004A1", "about": "“Use of cardiotrophin-1 to promote wound healing and counteract overt fibrosis” (priority 2003, published 2005)", "key": {"[1]": {"tested_on": "cardiac fibroblasts", "test": "Protein synthesis assay (3H-leucine incorporation)", "assay_type": "cell-based, rat", "settings": "co-incubation with inhibitor, CT-1 10 ng/mL", "procedure": "Protein synthesis was determined using the methods of Wolf and Neilson (Wolf and Neilson, 1990, Am J Physiol 259: 768-777). 2.5×10^4 cells (counted with a hemacytometer) were loaded into each well of 24-well plates, allowed to attach overnight, then rendered quiescent in serum free DMEM/F12 for 24 hours. Cells were stimulated with CT-1 for an additional 24 hours in the presence of 2 μCi/mL ^3H-leucine with or without inhibitors of signaling pathways. The culture media was aspirated, cells rinsed twice with phosphate buffered saline and proteins precipitated by two incubations with 10% TCA at room temperature. The precipitated protein was solubilized in 300 μl lysis buffer containing 0.5 M NaOH and 1% Triton X-100 at room temperature for 15 minutes. The lysate was transferred to scintillation vials, and beta emission was determined with 3 ml Ecolume scintillation fluid (ICN Pharmaceuticals) and a scintillation counter (LS6500, Beckman Coulter, Fullerton, Calif.)."}, "[2]": {"tested_on": "cardiac fibroblasts", "test": "Western analysis of phosphorylation of translational regulatory proteins", "assay_type": "cell-based, rat", "settings": "co-incubation with inhibitor", "procedure": "(§1) Protein concentrations of tissue and cell lysates were determined by the BCA method (Smith et al., 1985, Anal Biochem 150: 76-85). Proteins were separated by 8-12% SDS-PAGE and transferred to PVDF membrane (Roche, Indianapolis, Ind.) for 1 hour at 300 mA for small proteins or for 2 hours at 500 mA for proteins greater than 100 kDa. Membranes were blocked with 5% non-fat skim milk in tris-buffered saline containing 0.2% Tween 20 (TBST). Proteins were visualized with ECL Plus (Amersham) after probing with primary and secondary antibodies. Band intensity was quantified using a CCD camera imaging densitometer (GS670, Bio-Rad Laboratories (Canada) Ltd. Mississauga, Ontario).\nTo determine the effect of CT-1 on protein synthesis in cardiac fibroblasts we measured incorporation of ^3H-labeled leucine. […] Since the activity of translational regulatory proteins is modified by phosphorylation, we used phospho-specific antibodies to determine if CT-1 directly influenced the activity of these regulatory proteins.\nWe then determined the effect of pharmacologic inhibitors on the activation of this signaling cascade."}, "[3]": {"tested_on": "other kinases", "settings": "cited from earlier work"}, "[4]": {"tested_on": "cardiac fibroblasts", "test": "Western analysis of myosin light chain phosphorylation", "assay_type": "cell-based, rat", "settings": "co-incubation with inhibitor, 30 minutes", "procedure": "as §1\nThe infarct zone is repopulated by interstitial fibroblasts that infiltrate the scar after MI. […] Similar results were obtained when using the Costar Transwell® system (data not shown). To determine how the chemotactic response is transduced, we used specific inhibitors of intracellular signaling pathways. […] This effect could be blunted by co-incubation with AG490 (FIG. 22). […] Since activation of myosin motors is required for effective cell migration, and CT-1 induced migration could be inhibited by co-incubation with a myosin light chain kinase inhibitor, we sought to determine the effect of CT-1 on the phosphorylation status of myosin light chain. Myosin light chain regulates the ATPase activity of myosin heavy chain, and thus overall contractile activity. […] Myosin light chain phosphorylation could be prevented by co-incubation with ML-7 or W7 but not AG490 or PP2 (FIG. 25b)."}, "[5]": {"tested_on": "cardiac fibroblasts", "test": "Wounded monolayer model, cortactin immunostaining", "assay_type": "cell-based, rat", "settings": "co-incubation with inhibitor", "procedure": "Cardiac fibroblasts were seeded onto coverslips in 6-well dishes and allowed to proliferate. Once the cells were near confluency, they were serum deprived for 24 hours. A scrape was made down the middle of the coverslip with the blunt end of a 1 ml syringe and the media was changed again. Cells were further incubated in the presence or absence of CT-1 and inhibitors at specified concentrations for specified times. The cells were then subjected to immunofluorescence staining as described herein."}, "[6]": {"tested_on": "angiotensinogen mRNA", "settings": "cited from earlier work"}}, "data": [{"smiles": "COc1cccc(-c2cc(=O)c3ccccc3o2)c1N", "note": "[PD98059]", "values": [{"measurement": "effect on CT-1 induced protein synthesis (3H-leucine uptake)", "setting": "[1]", "result": "suppressed"}, {"measurement": "effect on CT-1 induced phosphorylation of Akt, mTOR, p70 S6 kinase, 4EB-P1 and S6 ribosomal protein", "setting": "[2]", "result": "lesser effect"}, {"measurement": "effect on basal and CT-1 induced phosphorylation of ERK 1/2, Mnk1, and eIF4E", "setting": "[2]", "result": "greatest inhibitory effect"}, {"measurement": "concentration at which selectivity is maintained", "setting": "[3]", "result": "≤ 50", "unit": "µM"}]}, {"smiles": "C[S+]([O-])c1ccc(-c2nc(-c3ccncc3)c(-c3ccc(F)cc3)[nH]2)cc1", "note": "(stereo not drawn) [SB203580]", "values": [{"measurement": "effect on CT-1 induced protein synthesis (3H-leucine uptake)", "setting": "[1]", "result": "suppressed"}, {"measurement": "effect on CT-1 induced phosphorylation of Akt, p70 S6 kinase and Mnk1", "setting": "[2]", "result": "suppressed"}]}, {"smiles": "CC(C)(C)n1nc(-c2ccc(Cl)cc2)c2c(N)ncnc21", "note": "[PP2]", "values": [{"measurement": "effect on CT-1 induced myosin light chain phosphorylation", "setting": "[4]", "result": "not"}]}, {"smiles": "N#C/C(=C\\c1ccc(O)c(O)c1)C(=O)NCc1ccccc1", "note": "[AG490, Tyrphostin B42]", "values": [{"measurement": "effect on CT-1 induced protein synthesis (3H-leucine uptake)", "setting": "[1]", "result": "suppressed"}, {"measurement": "effect on CT-1 induced activation of ERK 1/2, p38 MAPK, mTOR, p70 S6 kinase S421/T424, or S6 ribosomal protein", "setting": "[2]", "result": "did not significantly affect"}, {"measurement": "effect on CT-1 induced phosphorylation of Akt at both sites, p70 S6 kinase T389, Mnk1, eIF4E and 4E-BP1", "setting": "[2]", "result": "suppressed"}, {"measurement": "effect on CT-1 induced cortactin localization at the leading edge", "setting": "[5]", "result": "blunted"}, {"measurement": "effect on CT-1 induced myosin light chain phosphorylation", "setting": "[4]", "result": "not"}, {"measurement": "angiotensinogen mRNA production in response to CT-1 stimulation", "setting": "[6]", "result": "attenuate"}]}, {"smiles": "O=S(=O)(c1cccc2c(I)cccc12)N1CCCNCC1", "note": "[ML-7]", "values": [{"measurement": "effect on CT-1 induced myosin light chain phosphorylation", "setting": "[4]", "result": "prevented"}]}, {"smiles": "NCCCCCCNS(=O)(=O)c1cccc2c(Cl)cccc12", "note": "[W7]", "values": [{"measurement": "effect on CT-1 induced myosin light chain phosphorylation", "setting": "[4]", "result": "prevented"}]}]}
